Data taken from US9982021B2, “Composition for dissolving thrombi, and a pharmaceutical composition for treating stenotic or occlusive vascular diseases which comprises the same” (INDUSTRY-ACADEMIC COOPERATION FOUNDATION, YONSEI UNIVERSITY, priority 2010, dated 2018).
Entries after “also recorded” stand apart in the source; their conditions may differ.

Tests used:
[1] = test system: mouse PRP (platelet rich plasma); assay: In vitro platelet aggregation assay (ADP, Aggregometer); format: cell-based; details: for IC50: ADP, mouse PRP, read-out: IC50 platelet aggregation inhibition
Source text: Saxatilin derivatives and ADP were administrated to mouse PRP (platelet rich plasma) and measured aggregation level using Aggregometer (CHRONO-LOG, USA) to evaluate activity of the present saxatilin derivatives (Table 1).

[2] = test system: FeCl3-induced carotid thrombus; assay: Intravenous thrombolysis in FeCl3-induced carotid artery thrombosis model (carotid blood flow); format: in vivo, ICR mice
[3] = test system: FeCl3-induced carotid thrombus; assay: as above; format: in vivo, ICR mice; remark: listed apart in the source
Protocol: 8-week-old male ICR (Institute of Cancer Research) mice (OrientBio) were used. The care and use of laboratory animals were performed according to institutionally approved protocol in accordance with the National Institutes of Health's Guide for the care and use of laboratory animals. For operative procedures, the animals were anesthetized with an inhalation of 5% isoflurane in a mixture of 70% N2O and 30% O2. Anesthesia was maintained with 2% isoflurane. During the operative procedures, body temperature was monitored continuously with a rectal probe and was maintained at 37.0±0.2° C. by means of a homeothermic blanket control unit and heating pad (Harvard Apparatus, Holliston, Mass.). To test the thrombolytic activity of r-saxatilin in vivo, FeCl3 (Sigma Aldrich, USA)-induced carotid thrombus model was utilized. A midline cervical incision was made, and the left common carotid artery was carefully dissected under a surgical microscope. An ultrasonic Doppler flow probe (Transonic MA0.7PSB) was placed around midportion of the common carotid artery (CCA). Carotid blood flow was obtained with a Transonic TS420 Blood Flow Meter (Transonic Instruments, Ithaca, N.Y.) and iWorx IX-304T data acquisition system (iWorx Systems, Inc., Dover, N.H.). The control baseline flow of the CCA was measured for 5 minutes. After the determination of the control baseline flow, the probe was removed. Oxidative vascular injury with chemical stress was induced by placing a filter paper (700×500 μm) saturated with 50% FeCl3 on the adventitial surface of the midpoint of the exposed CCA for 5 min. After removing the filter paper, the CCA was washed with normal saline and its blood flow was recorded. Thrombus formation and arterial occlusion were determined by decrease of blood flow and the complete occlusion was defined as absence of blood flow maintained for 10 minutes.
Ten minutes after occlusion of the CCA, r-saxatilin was administered intravenously via the left femoral vein by using an infusion pump (KD Scientific Inc., USA) connected to PE-10 tubing. The carotid blood flow was continuously monitored for 2 hours from the initial time of injection.
To evaluate dose response of r-saxatilin, the animals were randomly divided into seven groups (five mice in each group): normal saline (control group), 1, 1.75, 2.5, 3.75, 5.0, and 10.0 mg/kg of r-saxatilin administration groups. 10% of the dose was administered in bolus intravenously and the rest was infused continuously for 60 min.
Effects of r-saxatilin for thrombolysis were assessed according to administration method. For this experiment, a total dose of 5 mg/kg of r-saxatilin was used in each animal, and the animals were divided into four groups (five mice in each group): (a) bolus injection of total dose (5 mg/kg); (b) double bolus injection of r-saxatilin with a half dose (2.5 mg/kg) of r-saxatilin at 10 min after occlusion and 60 min after the first bolus injection; (c) a half dose bolus injection (2.5 mg/kg) at 10 min after occlusion, and then continuous infusion for 60 min of the remaining dose; and (d) bolus injection of 10% of the total dose (0.5 mg/kg) at 10 min after occlusion, and then continuous infusion of the remaining dose (4.5 mg/kg) for 60 min.
The presence and degree of recanalization were assessed by measuring blood flow. Data of blood flow at baseline and those monitored continuously for 2 hours after CCA occlusion were acquired by using iWorx Labscribe2 data acquisition software (version 2.045000). Immediately after 2 hours of blood flow monitoring, the CCA was obtained in all mice, fixed with 4% paraformaldehyde solution, and embedded in paraffin for histological examination. The paraffin blocks were consecutively sectioned in a transverse direction with 3 μm-thickness, mounted on a glass slide, and stained with hematoxylin and eosin.
The carotid blood flow was analyzed by the area under the flow-time curves. […]

[4] = Mortality and bleeding after the r-saxatilin treatment; format: in vivo, ICR mice; details: 5 mg/kg bolus injection group
Source text: Total 51 animals were used for evaluation of thrombolytic effects of r-saxatilin.

[5] = total 5 mg/kg, bolus injection of total dose

**Q.** For “XL2: saxatilin derivative (deletion mutant), SEQ ID NO:7, expressed in Pichia (CKLRPGAQCAEGLCCDQCRFMKEGTICRMARGDDMDDYCNGISAGC; aritificially made peptide comprising Arg-Gly-Asp motif having thrombolytic activity)”, which IC50 [1] is on record?
**A.** 0.986 µM

**Q.** Which “restored blood flow (area under flow-time curve)” value ([2]; 20 mg/kg) does the source give for saxatilin here?
**A.** 60.92±39.52%

**Q.** What about the “restoration of blood flow and reocclusion” value ([2]; 40 mg/kg) of the same substance?
**A.** restored to normal blood flow and maintained without reocclusion

**Q.** What about the “effective recanalization (blood flow >=50% of baseline maintained >30 min), mice” value ([3]; 1 mg/kg) of the same substance?
**A.** No effective recanalization

**Q.** And the “blood flow, area under flow-time curve, percent of mean control baseline blood flow” value ([3]; 1 mg/kg i.v., 10% bolus + 60 min infusion, 2 h monitoring)?
**A.** 2.36±0.78%

**Q.** And the “effective recanalization, mice” value ([3]; 1.75 mg/kg)?
**A.** No effective recanalization

**Q.** And the “blood flow, area under flow-time curve, percent of mean control baseline blood flow” value ([3]; 1.75 mg/kg i.v., 10% bolus + 60 min infusion)?
**A.** 4.97±3.94%

**Q.** And the “effective recanalization, mice” value ([3]; 2.5 mg/kg)?
**A.** two of five

**Q.** And the “time to effective recanalization” value ([3]; 2.5 mg/kg)?
**A.** 32.92 ± 23.52 min

**Q.** What about the “blood flow, area under flow-time curve, percent of mean control baseline blood flow” value ([3]; 2.5 mg/kg i.v., 10% bolus + 60 min infusion) of the same substance?
**A.** 32.50±33.70%

**Q.** What about the “effective recanalization, mice” value ([3]; 3.75 mg/kg) of the same substance?
**A.** three of five

**Q.** And the “time to effective recanalization” value ([3]; 3.75 mg/kg)?
**A.** 21.75 ± 21.62 min

**Q.** What about the “effective recanalization, mice” value ([3]; 5 mg/kg, 10% bolus + infusion) of the same substance?
**A.** all mice

**Q.** What about the “time to effective recanalization” value ([3]; 5 mg/kg, bolus 10% of total dose + continuous infusion) of the same substance?
**A.** 13.92 ± 6.02 min

**Q.** And the “time to effective recanalization” value ([3]; 5 mg/kg, bolus injection of total dose)?
**A.** 2.86 ± 0.22 min

**Q.** And the “time to effective recanalization” value ([3]; 5 mg/kg, double bolus injection)?
**A.** 13.44 ± 26.31 min

**Q.** What about the “time to effective recanalization” value ([3]; 5 mg/kg, half dose bolus and continuous infusion of other half) of the same substance?
**A.** 19.48 ± 25.94 min

**Q.** And the “effective recanalization, mice” value ([3]; 10 mg/kg)?
**A.** all mice

**Q.** What about the “time to effective recanalization” value ([3]; 10 mg/kg) of the same substance?
**A.** 19.46 ± 19.75 min

**Q.** What about the “blood flow, area under flow-time curve, versus baseline and 5 mg/kg” value ([3]; 10 mg/kg i.v., 10% bolus + 60 min infusion, listed as r-saxatilin) of the same substance?
**A.** no significant difference; also recorded: restored nearly to the baseline level

**Q.** What about the reocclusion ([3]; total 5 mg/kg, bolus 10% of total dose + continuous infusion of remaining dose) of the same substance?
**A.** no reocclusion

**Q.** And the “mean percentage of blood flow compared to baseline blood flow” value (“mean percentage of blood flow” for short) [3, 5]?
**A.** 77.01±46.11%

**Q.** And the “time point of abrupt reocclusion” value [3, 5]?
**A.** about 100 min

**Q.** And the “mean percentage of blood flow” value ([3]; total 5 mg/kg, double bolus injection with a half dose (2.5 mg/kg each))?
**A.** 85.23±29.95%

**Q.** What about the “time point of abrupt reocclusion” value ([3]; total 5 mg/kg, double bolus injection, after the first injection) of the same substance?
**A.** about 50 min

**Q.** And the “time point of abrupt reocclusion” value ([3]; total 5 mg/kg, half dose bolus and continuous infusion of other half)?
**A.** about 110 min

**Q.** What about the “mean percentage of blood flow” value ([3]; total 5 mg/kg, half dose bolus then continuous infusion of remaining dose for 60 min) of the same substance?
**A.** 80.72±30.13%

**Q.** What about the “bleeding in the cervical incision” value [4] of the same substance?
**A.** one animal suffered bleeding

**Q.** And the mortality ([4]; about 90 min after bolus, total 51 animals)?
**A.** one animal was died from bleeding

**Q.** And the IC50 [1]?
**A.** 0.176 µM

**Q.** What about the “treatment concentration giving similar level of aggregation inhibition” value ([1]; FIG. 6) of the same substance?
**A.** approximately 0.7 μM
